Laboratory results published in patent US12410153B2, “Compounds, compositions and methods” (Avalo Therapeutics, Inc., priority 2014, dated 2025).

Assays:
Sprague-Dawley rats [1] = assay: Acute depression model, forced swim test; type: in vivo, rat; details: 20 mg/kg vs vehicle
Experimental: Young, adult, male Sprague-Dawley rats were randomly assigned across the treatment groups and were administered vehicle (0.5% MC/0.02% SLS), the reference compound desipramine (20 mg/kg; a tricyclic antidepressant; Sigma, Lot #078K1326) dissolved in sterile water, or crystalline Form II of Compound (I) (0.1, 0.3, 1, 3, 10, and 30 mg/kg) suspended in 0.5% MC/0.02% SLS, twice on Day 1 (after habituation; ˜24 h prior to test, and prior to dark cycle) and once on Day 2 (30 min pre-test for desipramine and 45 min pre-test for Form II and vehicle).
Each Forced Swim chamber was constructed of clear acrylic (height, 40 cm; diameter, 20.3 cm). Rats were subjected to a pre-dose swim test of one 15-min session in cylinders containing water at 23° C.±1° C., followed approximately 24 h later by the experimental 5-min session. The water level was 16 cm deep during habituation and 30 cm deep during the test. Immobility, climbing, and swimming behaviors were recorded every 5 s for a total of 60 counts per subject. When an animal was unable to maintain a posture with its nose above water, it was immediately removed from the water and eliminated from the study. Blood was collected at the completion of swim test procedures and plasma was analyzed for Form II concentrations.

[2] = patients with TRMDD; Ibrahim et al. 2012; cited from earlier work
[3] = system: systemic blood pressure and heart rate; assay: Blood pressure profile in chronically instrumented (telemetered) rats; type: in vivo, rat
Experimental: A single oral gavage dose was administered (volume: 5 mL/kg). […] Following the completion of the Latin square, two additional dose concentrations were evaluated (0.6 and 10 mg/kg, n=3 per group).
All IV doses were administered in manually restrained rats via tail vena-puncture. It should be noted that vehicle controls were also administered.
A 24-hour recording was performed prior to dosing (vehicle alone) and after each oral dose.

[4] = Repeated once-daily oral dosing with food (Days 1-7) in healthy subjects, PK and PD; type: in vivo, human; details: oral doses up to 20 mg
Experimental: A randomized, double-blind, placebo-controlled, parallel-dose group in-patient study is conducted to investigate the pharmacodynamic (PD) effects of crystalline Form II of Compound (I) in healthy subjects.
The study is designed as a three-part, sequential study. The sequential nature of the study ensures that a range of doses are investigated first in a young, healthy population (Part 1) before proceeding to higher doses in the healthy population and the comparator populations (intermediate age and elderly) (Parts 2 and 3). For the purposes of this study, “young” refers to a subject who is 18 to 45 years of age, “intermediate age” refers to a subject who is 46 to 64 years of age, and “elderly” refers to a subject who is 65 years of age or older.
After a screening period of up to 21 days (Days −23 to −3), 16 healthy, young male and female subjects are randomly assigned to a dose group as shown in Table 9.
Each parallel dose group is balanced for gender (approximately equal number of males and females). The randomized subjects are domiciled from Day −1 through Day 8. On Day −1, the subjects receive placebo tablets in the fed state and undergo ambulatory blood pressure monitoring (ABPM) and safety assessments to establish time-matched baselines. On Days 1-7, the subjects receive the study drug in the fed state and undergo safety, pharmacokinetic (PK) and pharmacodynamics (PD) assessments. On Days 8-11, follow-up PK and safety assessments are performed.
Safety assessments include Clinician-Administered Dissociative States Scale (CADSS), Columbia-Suicide Severity Rating Scale (C-SSRS), concomitant medication, adverse event (AE) and vital sign assessments. In PK assessments, blood samples are taken and analyzed to determine PK parameters such as Cmax, Tmax, AUC0-24, and t1/2. PD assessments include ABPM, plasma brain-derived neurotrophic factor (BDNF) measurements, and Profile of Mood States (POMS) assessments.
After a screening period of up to 21 days (Days −23 to −3), 16 subjects (8 healthy, young male and female subjects, and 8 healthy, intermediate age male and female subjects) are randomly assigned to a dose group as shown in Table 10.
After a screening period of up to 21 days (Days −23 to −3), 16 subjects (8 healthy, young male and female subjects, and 8 healthy, elderly male and female subjects) are randomly assigned to a dose group as shown in Table 11.

Sprague-Dawley rats [5] = assay: Rat forced swim test 24 hours after administration; type: in vivo; details: 10 mg/kg, i.p., 24 hours before test, p<0.05
Experimental: This study aimed to evaluate the duration of the antidepressant-like effects of Form II of Compound (I) using the forced swim test in male, Sprague-Dawley rats. Clinically effective antidepressant compounds reduce immobility time and increase swimming in rodents subjected to this test. Rats received Compound (I) (10 mg/kg, p.o.) or ketamine (10 mg/kg, i.p.) and 24 hours later were subjected to testing. […] The data represent mean±SEM.

[6] = Polymorph stability (slurry and heating, XRPD); type: physicochemical; details: heating to 115° C.
Experimental: Crystalline Form II of Compound (I) was characterized using X-ray powder diffraction (XRPD) (FIG. 1A). The XRPD pattern corresponds to an anhydrous form denoted as Form II, which is highly crystalline. In addition to Form II, Compound (I) can exist as another anhydrous polymorph, denoted as Form I. The XRPD patterns of these phases are shown in FIG. 1B. A slurry experiment was performed at room temperature by adding approximately equal proportions of the two anhydrous phases to methyl-tert-butyl ether.

[7] = 1 mg/kg IV bolus, blocker alone

With `CNCCCN1c2ccccc2CCc2ccccc21` [Desipramine, reference compound] the swimming behavior (Sprague-Dawley rats [1]) was “no change”, the immobility (Sprague-Dawley rats [1]; P<0.001) was “significantly decreased” and the climbing behavior (Sprague-Dawley rats [1]; P<0.01) was “significantly increased”.
In the case of `Cc1ccc(COC(=O)N2CC[C@H](CNc3ncccn3)[C@H](F)C2)cc1` [Compound (I), 4-methylbenzyl (3S, 4R)-3-fluoro-4-[(pyrimidin-2-ylamino)methyl] piperidine-1-carboxylate], the “HAM-D17 and Beck Depression Inventory (BDI)” value [2] is listed as “showed antidepressant effects”, the heart rate ([3]; 0.3 and 0.6 mg/kg oral) is listed as “modestly increased heart rate” and the heart rate ([3]; between 1 and 10 mg/kg oral) is listed as “increased HR dose proportionally”. For the same molecule, the “magnitude of change in hemodynamics compared with MK-801 (0.2 mg/kg IV)” value ([3]; oral 0.3-10 mg/kg) was “significantly less than that of MK-801”, the arterial blood pressure ([3]; oral, dose-dependent between 0.3-1 mg/kg, plateaued at 1-10 mg/kg) was “increased arterial blood pressure transiently” and the “heart rates in human studies” value [4] was “have not been observed to increase to any significant degree”. For the same molecule, the “primary hemodynamic observation in human studies” value [4] was “transient increase in systolic and diastolic blood pressure”.
With `CNC1(c2ccccc2Cl)CCCCC1=O` (stereo not drawn) [ketamine, reference compound] the immobility (Sprague-Dawley rats [5]) was “reduced immobility” and the swim time (Sprague-Dawley rats [5]) was “increased swim time significantly”.
With `CC(C)NCC(O)COc1ccc(CC(N)=O)cc1` (stereo not drawn) [atenolol, reference compound] the HR change [3, 7] was −87±11 bpm and the MAP change [3, 7] was −3.3±3.1 mmHg.
With `Cc1ccc(COC(=O)N2CC[C@H](CNc3ncccn3)[C@H](F)C2)cc1` [Form I, 4-methylbenzyl (3S, 4R)-3-fluoro-4-[(pyrimidin-2-ylamino)methyl] piperidine-1-carboxylate] the “phase change on heating (XRPD of recovered solids)” value [6] was “phase conversion to Form II”.
